Reference: patent publication US20060189539A1, “Novel GnRH analogues with antitumour effects and pharmaceutical compositions thereof” (priority 1994, published 2006)
Entries after “also recorded” stand apart in the source; their conditions may differ.

Key:
[1] = system: MCF-7 human mammary carcinoma cell line; test: Inhibition of colony formation (dose-survival), Example 18; type: cell-based; details: 50 μM
Text: (§1) Human cell lines used in in vitro experiments. MCF-7 human mammary tumour cell line was stabilized in 1973 by Soule et al. from the pleural fluid of mammary carcinoma patients. The cells grow in monolayer and are epithelial in their character. MDA-MB-231 human mammary carcinoma cell line was isolated and stabilized in 1974 by Cailleau et al. similarly from pleural fluid. These cells also grow in monolayer. PC3 human prostate carcinoma cell line was stabilized 20 in 1979 in cell culture by Kaighn et al.; the cells are of simple epithelium type and form compact colonies in clonogenic assays. Ishikawa cell line originated from adenocarcinoma of human endometrium [Nishida et al.: Obstet. Gynecol. Jpn, 37, 25 1103-1111 (1985)], has epithelial character and contains steroid as well as GnRH receptors. Human tumour cell lines are maintained in plastic flasks (Greiner) in Dulbecco-6modified Eagle-MEM (DMEM GIBCO) nutritive medium. The medium used herein contained 10% of fetal calf serum (FCS).
(§2) In the case of cytostatics the cell-damaging effect is not cell-specific. […] One part of the arrested cells again go into the cycle, the other part may perish (apoptosis). […] The investigations were carried out on MCF-7 and MDA-MB-231 human mammary carcinoma cell lines, PC3 human prostate 15 carcinoma cell line and Ishikawa human endometrium carcinoma cell line. Threehundred cells were set into Petri dishes of 3.5 cm in diameter each. The treatment was carried out once, 24 hours following the explantation, then the colonies formed were counted after 9 to 12 days.

[2] = system: MDA-MB-231 human mammary carcinoma cell line; test: as above; type: cell-based; details: 50 μM
Text: as §1, §2

[3] = system: Ishikawa human endometrium carcinoma cell line; test: as above; type: cell-based; details: for Inhibition of colony formation: 30 to 50 μM
Text: as §1, §2

[4] = system: PC3 human prostate carcinoma cell line; test: as above; type: cell-based; details: for Inhibition of colony formation: 30 to 50 μM
Text: as §1, §2

MDA-MB-231 xenograft = test: In vivo antitumour effect on MDA-MB-231 xenograft; set-up: species or system immunosuppressed CBA/Ca mice; details: for Animals from 7 treated that became tumour-free: 6th week of treatment, 100 μg daily s.c.; for Tumour-free animals: end of the 6th week, first series
Protocol: (§3) The immunosuppression of mice was carried out by using the method of Steel et al. (1978).
(§4) CBA/Ca female mice of about 6 weeks old were thymectomized and then, after one week, they were irradiated with 60Co (whole body irradiation; the lethal dose is 9.5 Gray). Within 24 hours 3 to 5×10^5 myelocytes were injected to the animals. Beneath the skin of the immunosuppressed mice 2×10^7 tumour cells or, in the case of later passages, about 2 mm^3 of tumour cells or in the case of later, additional passages about 2 mm^3 of tumour pieces were implanted. […] The treatment with steroid hormone was stopped by at least one week before beginning the investigation.
(§5) Recent investigations have begun on 28 animals bearing MCF-7 xenograft .and on 28 animals bearing MDA-MB-231 xenograft. On animals bearing MCF-7 tumour the treatment was commenced in the 5th week following xeno-transplantation; the tumour volume was 205 to 225 mm^3. On animals bearing MDA-MB-231 tumour, the treatment was started in the 4th week after xeno-transplantation with a tumour volume of 140 to 150 mm^3. […] The control groups were daily treated with physiological saline s.c. (Each treated group consisted of 7 animals.)
A more recent study was started on 28 animals bearing. MDA-MB-231 xenograft. The treatment was begun in the 4th or 5th week following xenotransplantation. The tumour volume was 0.165 to 0.194 cm3. […] (For treatment of the control group, see the preceding Examples). Each group consisted of 7 animals.

[5] = system: PC3 human prostate carcinoma cells; test: In vitro inhibition of cell proliferation (cell count), Example 19; type: cell-based; details: 30 μM of active substance, conjugate, treated once
Protocol: The procedure of treatment was as follows. After trypsinization the cells, 400,000 cells of MCF-7, MDA-MB-231 human mammary carcinoma, PC3 human prostate carcinoma or Ishikawa human endometrium tumour each were passed into Petri dishes of 10 cm in diameter. Starting from the day following transfer, the cells were treated with the substances to be tested in solution prepared with the nutrient medium during the exponential growth phase. […]

[6] = system: Ishikawa human endometrium tumour cells; details: 30 μM of active substance, conjugate, treated once
Text: The procedure of treatment was as follows. After trypsinization the cells, 400,000 cells of MCF-7, MDA-MB-231 human mammary carcinoma, PC3 human prostate carcinoma or Ishikawa human endometrium tumour each were passed into Petri dishes of 10 cm in diameter. […]

[7] = Castration effect: uterus weight of xenograft-bearing animals; type: in vivo, mice
[8] = system: MDA-MB-231 human mammary carcinoma cells; test: In vitro inhibition of cell proliferation (cell count), Example 19; type: cell-based; details: 30 μM of active substance, conjugate, treated once, cell count on 7th day
Protocol: (§6) The procedure of treatment was as follows. After trypsinization the cells, 400,000 cells of MCF-7, MDA-MB-231 human mammary carcinoma, PC3 human prostate carcinoma or Ishikawa human endometrium tumour each were passed into Petri dishes of 10 cm in diameter. Starting from the day following transfer, the cells were treated with the substances to be tested in solution prepared with the nutrient medium during the exponential growth phase. The cultures were treated with 1 to 50 μM (calculated for the total volume of the culture) of MI-1544 GnRH antagonist, MI-1892 chicken GnRH antagonist or SJ-1004 GnRH […] on the 7th day.

[9] = system: MCF-7 human mammary carcinoma cells; test: as above; type: cell-based; details: 30 μM of active substance, conjugate, treated once, cell count on 7th day
Protocol: as §6

MCF-7 xenograft = test: In vivo antitumour effect on MCF-7 xenograft; set-up: species or system immunosuppressed CBA/Ca mice; details: for Influence on the rate of tumour growth: first study, conjugates 150 μg in every 3rd day, P-GFLG-OH daily s.c. corresponding to 50 μg
Protocol: as §3, §4
In the case of MCF-7 tumours (xenografts) the examinations were carried out with passages being in the phase of the 37th and 38th, respectively, transplantations.
In the case of mice bearing MCF-7 xenograft, the treatment was begun in the 4th week following xeno-transplantation.
as §5

[10] = system: MCF-7 human mammary carcinoma cell line; test: Inhibition of colony formation (dose-survival), Example 48; type: cell-based; details: 10 μM
Text: MCF-7 human mammary carcinoma cell line was stabilized in 1973 by Soule et al. from the pleural fluid of a patient suffering from mammary carcinoma. MDA-MB-231 human mammary carcinoma cell line was isolated and stabilized by Cailleau et al. in 1974 similarly from pleural fluid. Both cell lines grow in monolayer. […] MCF-7 cell line is estradiol receptor (ER)-positive containing proteins specifically binding GnRH. Thus, it represents, a useful model system for investigating the direct effect of GnRH mediated by the GnRH receptor. Being ER-negative and GnRH receptor-positive, MDA-MB-231 cell line is similarly suitable to study the direct effect of GnRH. PC3 human prostate carcinoma cell line was stabilized in cell culture by Kaighn et al. in 1979. The cells are of epithelial type and form compact colonies in clonogenic assays. The Ishikawa cell line originates from human endometrial adenocarcinoma [M. Nishida et al.: Acta Obstet. Gynecol. Jpn. 37, 1103-1111 (1985)], it is epithelial in its character and contains steroid-as well as GnRH receptors. The examination gives accurate information about the cell-damaging effect of the substance tested as a function of varying doses. The treatment was carried out once; the colonies formed from the surviving cells were counted after 8-12 days. […] A part of the arrested cells again entered the cycle, an other part of them might be destroyed (apoptosis). […] The treatment was once carried out 24 hours after setting, then the colonies formed were counted after 8-12 days. The cells were treated once after 24 hours with 1-50 μM of various GnRH analogues of Examples above or with 1-50 μM of GnRH-III, respectively. The percentages of inhibition obtained on MCF-7, MDA-MB-231, PC3 and Ishikawa cells, respectively, together with the dose of the active agent used are shown in Table VIII.

MXT mouse mammary tumour = test: In vivo antitumour effect on MXT mouse mammary tumour; set-up: species or system CBA/Ca mice; details: 75 μg/day/animal s.c.; day 17
Protocol: The MXT mouse mammary carcinoma contains ER and PgR proteins; furthermore, it contains also GnRH receptors; therefore, this in vivo tumor model is suitable for studying both the direct and indirect effects. The treatment of mice bearing MXT mammary tumour was commenced on the day following transplantation. […] The animals were daily treated in s.c. route starting from the day following transplantation of MXT mouse mammary tumour. […] MI-1544: 75 μg/day/animal; MI-1892: 75 μg/day/animal.

B-lymphocytes = test: Humoral immune response (antibody production of B-lymphocytes); type: in vivo, mice; details: dose not stated
T-lymphocytes = test: Cellular immune response (rosette formation against BRBC antigen); type: in vivo, mice; details: dose not stated
Text: The immunosuppressive side effect of cytostatics used in tumour therapy is commonly known. This effect can be compensated to a certain grade by various immunostimulants (endotoxin, levamisole). Polypeptides with much […] molecular weights (about 40,000 to 80,000) are also capable of protecting against immunosuppressive effect [Gal et al.: J. Biol. Resp. Modif. 5, 148-159 (1986)). The molecular weight of the novel polyanionic P-GFLG-OH macromolecule tested by us is about 10,000, that of MI-1892 is about 2000, i.e. relatively low; therefore, their immunostimulatory activity was unexpected.

ovulation of female rats = test: Ovulation / cycle of female rats during treatment for three cycles; type: in vivo, rat; details: high dose of the coupled GnRH-III; three cycles observed
Text: In 1993, researchers isolated and synthesized the Lamprey-III-GnRH decapeptide from lamprey (Petromyzon marinus) (p[…]NH2).
On comparison to healthy individuals, the functioning of the protective mechanism (immunostatus) of patients suffering from tumour is more unfavourable. Since the protective (immune) mechanism is enhanced by the compound, its tumour-inhibiting action can more strongly become valid. […] This effect may particularly be preferred on young patients suffering from mammary tumour, where a castration would cause psychic disturbances. In a way different from other conjugates, P-GFLG-GnRH-III gradually induces an inhibition of continually increasing grade during the long-lasting treatment for 7 weeks; and at the end of treatment, tumour-free animals are observed whereas in the case of other conjugates the degree of inhibition increases only up to the fifth week of treatment, then a stagnation in the grade of inhibition can be observed.

[11] = animals bearing MCF-7 xenografts, treatment for four weeks
[12] = animals bearing MDA-MB-231 xenografts, treatment for twelve weeks

Substance	Inhibition of colony formation [3] [%]	Inhibition of colony formation [4] [%]	Animals from 7 treated that became tumour-free (MDA-MB-231 xenograft)	Tumour-free animals (MDA-MB-231 xenograft)	% Inhibition of cell division [5] [%]	% Inhibition of cell division [6] [%]	Decrease of uterus weight [7, 11] [%]	Decrease of uterus weight [7, 12] [%]	% Inhibition of cell division [8] [%]	% Inhibition of cell division [9] [%]	Inhibition % (MCF-7 xenograft; 1 × 50 μg, week 2) [%]	Influence on the rate of tumour growth (MCF-7 xenograft)	also measured
Ac-D-Trp1,3,D-Cpa2,{D-Lys[n-poly-(N-vinylpyrrolidone-co-maleic acid)-Gly-Phe-Leu-Gly]}6. D-Ala10-GnRH [P-GFLG-1544]	100	100	1	A tumour-free animal was found	68.5	95	42	50	45	58	30	not influenced	% Inhibition of colony formation [1]: 100%; % Inhibition of colony formation [2]: 100%; % Inhibition of colony formation ([4]; 10 μM): 100%; % Inhibition of colony formation ([4]; 50 μM): 100%; Tumour volume (MDA-MB-231 xenograft; 1 × 50 μg daily s.c., week 2): 0.21 cm3; Tumour volume (MDA-MB-231 xenograft; 1 × 50 μg daily s.c., week 3): 0.24 cm3; Tumour volume as control (%) (MDA-MB-231 xenograft; 1 × 50 μg daily s.c., week 3): 66%; Tumour volume (MDA-MB-231 xenograft; 1 × 50 μg daily s.c., week 6): 0.36 cm3; Tumour volume as control (%) (MDA-MB-231 xenograft; 1 × 100 μg daily s.c., week 3): 65%; Inhibition % (MCF-7 xenograft; 1 × 50 μg, week 6): 49%; Tumour volume as control (%) (MCF-7 xenograft; 1 × 50 μg, week 6): 51%; Tumour-free animals (MCF-7 xenograft; repeated study, 6th week): a tumour-free animal was found; % Inhibition of colony formation [10]: 15%
Ac-D-Trp^1,3,D-Cpa^2,{Lys[n-poly(N-vinyl pyrrolidone-co-maleic acid)-Gly-Phe-Leu-Gly-]}5, [a-Asp(DEA)]6, D-Ala10-GnRH [P-GFLG-1892]	100	100	–	A tumour-free animal was found	51	91	39	20	42	45	30	not influenced	% Inhibition of colony formation ([3]; 30 μM): 100%; Tumour volume as control (%) (MXT mouse mammary tumour): 36%; Effect on the humoral immune response (B-lymphocytes): strengthened; also recorded: immunostimulatory effect; Tumour volume (MDA-MB-231 xenograft; 1 × 75 μg daily s.c., week 6): 0.33 cm3; Effect on the cellular immune response (activity of T-lymphocytes against BRBC antigen) (T-lymphocytes): increased; also recorded: twofold
{Lys[n-poly(N-vinylpyrrolidone-co-maleic acid)-Gly-Phe-Leu-Gly-]}8,-GnRH-III [P-GFLG-GnRH-III]	–	–	2	–	–	–	–	–	–	–	–	–	Tumour volume (MDA-MB-231 xenograft; 1 × 100 μg daily s.c., week 6): 0.40 cm3; Influence on the cycle of female rats (castration effect) (ovulation of female rats): not influenced
